From publication PMC3608532, “Characterization of a Single-Chain Variable Fragment Recognizing a Linear Epitope of Aβ: A Biotechnical Tool for Studies on Alzheimer’s Disease?” (PLoS ONE, 2013)

How the values were obtained:
Aβ(3-8) = experiment: SPR binding kinetics to immobilized Aβ(3-8)
Method: (§1) Binding kinetics were determined by SPR using a Biacore™ X (GE Healthcare, UK). Synthetic Aβ peptides were dissolved in 10 mM NaAc, pH 4.0. The CM5 sensor chip surface (GE Healthcare, UK) was activated using N-ethyl-N′-3 […] carbodiimide (EDC) and N-hydroxysuccinimide (NHS) chemistry followed by 2-(2-pyridinyldithio)ethaneamine hydrochloride (PDEA), in order to introduce a reactive thiol group. Aβ was coupled via the C-terminal cysteine to the chip at a flow rate of 5 µl/min, and the remaining active groups were blocked by injecting cysteine. The immobilization procedure was performed according to manufacturer’s recommendation. All kinetic analyses were performed at a flow rate of 20 µl/min in PBS. Varying concentrations of scFv-IC16 (10 to 5000 nM) and IC16 (10 to 1000 nM) were injected. […] When required, the surface was regenerated by injecting 20 µl 50 mM glycine, pH 11.0. The data evaluation was performed using Biaevaluation Software 4.1.1. ScFv-IC16 data were fitted according to the Langmuir 1∶1 binding model, whereas IC16 data were fitted according to the bivalent binding model. Standard errors of equilibrium dissociation constants (KD) were calculated using standard errors of the corresponding association and dissociation rate constants.

Aβ(8-15) = experiment: SPR binding kinetics to immobilized Aβ(8-15)
Method: as §1

Aβ(1-42) = experiment: Thioflavin T (ThT) assay of Aβ(1-42) fibrilization; type: biochemical, human; details: for fibrilization of Aβ(1-42), ThT fluorescence: PBS, room temperature, value after 10 h, n = 5
Method: 7.5 µM Aβ(1-42) (stock solution of 190 µM in DMSO, freshly prepared before usage) were incubated with 10 µM ThT in PBS in absence or presence of different concentrations of scFv-IC16 (1.5, 3.75 and 7.5 µM) at room temperature for 24 h. In addition, scFv-IC16 (7.5 µM) without Aβ(1-42) was tested under the same conditions as the negative control. For all samples a reference value, generated with PBS and ThT only, was subtracted. […] The plate was covered by an adhesive film preventing evaporation of the sample buffer. Fluorescence recordings were performed every 30 min for 22 h (excitation wavelength 440 nm, emission wavelength 490 nm, Polarstar Optima, BMG, Ortenberg, Germany). The experiments were performed five-fold, and the average of the obtained values as well as the standard deviation was calculated.

[1] = tested on: Aβ naturally secreted by 7PA2 cells; experiment: Immunoprecipitation of cell culture derived Aβ; type: binding; details: scFv-IC16-NHS-Sepharose, Western blot with 4G8
Method: Purified scFv-IC16 was dialyzed against PBS and coupled to NHS-Sepharose (GE, Buckinghamshire, UK) according to the manufacturers recommendations. Conditioned medium (CM) was prepared from confluent wild type CHO cells or 7PA2 cells cultured in DMEM (Life Technologies, UK) in presence or absence of FCS. Aβ was immune-precipitated from cleared CM with scFv-IC16-NHS-Sepharose overnight at 4°C. After washing with PBS, captured proteins were separated by 10–20% tricine peptide PAGE (Biorad, Hercules, CA) and transferred onto a 0.2 µm nitrocellulose membrane at 400 mA for 2 h. The filter was boiled for 5 min in PBS [42] and blocked overnight at 4°C with 5% fat-free milk in PBS containing 0.05% Tween 20 (PBS-T). After washing in PBS-T, the membrane was probed with 1∶200 diluted monoclonal 4G8 (Signet, Dedhem, MA). Bound antibody was detected with horseradish peroxidase conjugated goat anti-mouse Ig (at 1∶25000) (Thermo Scientific, Bonn, Germany). Subsequently, the Amersham ECL Western Blotting Detection Reagent (GE, Buckinghamshire, UK) was applied for visualization.

[2] = tested on: Aβ plaques in brain cryosections of Tg2576 mice; experiment: Ex vivo staining of plaques in mouse brain slices; details: 9 or 12 months old Tg2576 mice and wildtype control, 20 µm sections; scFv-IC16 400 nM, 6E10 33 nM, 1-11-3 1:200; fluorescence microscopy
Method: Deep frozen horizontal brain cryosections (20 µm thickness) from 9 or 12 months old Tg2576 mice and the respective wildtype control were dried in ambient air for 15 min, and then fixed in ice-cold 4% (w/v) paraformaldehyde for 20 min. Incubation with 70% formic acid for 5 min was performed to enhance immunoreactivity. Sections were permeabilized with 1% Triton X-100 in TBS for 10 min, followed by blocking with Mouse on mouse (M.O.M.) Basic Kit (Vector Laboratories) in TBS-Triton (1%, v/v) for 30 min. Primary antibodies were diluted in 1% BSA/TBS-Triton (working concentration of ScFv: 400 nM, 6E10∶33 nM, 1-11-3 (Covance, USA) in 1∶200 dilution) and probed on the sections for 1 h, incubating at room temperature. […] For double staining, two secondary antibodies (goat anti mouse-Alexa488 and goat anti rabbit-Alexa-568 were mixed directly (working concentration of goat anti rabbit-Alexa568∶1.300). After 1 min of incubation with 0.5 µg/ml DAPI, the sections were coverslip-mounted with Aqua Poly/Mont (Polysciences Inc, Worrington, PA, USA). Sections were examined under a fluorescence microscope (Leica LMD6000 (Leica, Solms, Germany). Excitation Range: UV; blue; green. Excitation Filter: Bp 420/30; Bp 495/15; Bp 570/20) with camera (Leica DFC 310 FX). Images were processed with LAS software (Leica Application Suite, V.4.0.0) and ImageJ (1.45 s).

[3] = SPR Biacore X, CM5 chip, PBS, 25°C, global fit, scFv-IC16 Langmuir 1:1 model, IC16 bivalent model, ± standard error, SEM

Substance: scFv-IC16: single-chain variable fragment (VH-(Gly4Ser)3-VL, His6- and Myc-tag) derived from Aβ binding monoclonal antibody IC16, expressed in E. coli
- Kd (Aβ(3-8); SPR Biacore X, CM5 chip, PBS, 25°C, global fit, scFv-IC16 Langmuir 1:1 model, IC16 bivalent model): 5.25 µM
- k off (Aβ(3-8); [3]): 43.9±0.3×10^−3 s^-1
- k on (Aβ(3-8); [3]): 8.36±0.5×10^3 M^-1 s^-1
- Kd (Aβ(3-8); SPR, A2 of Aβ truncated): > 5 µM
- interaction with Aβ(8-15) (Aβ(8-15)): No interaction
- ThT fluorescence of scFv-IC16 only (Aβ(1-42); 7.5 µM scFv-IC16 without Aβ(1-42), negative control, after 10 h): did not show ThT fluorescence
- fibrilization of Aβ(1-42), ThT fluorescence (Aβ(1-42); ratio 1:1: 7.5 µM Aβ(1-42) with 7.5 µM scFv-IC16, 10 µM ThT): completely inhibited
- fibrilization of Aβ(1-42), ThT fluorescence (Aβ(1-42); ratio 2:1: 7.5 µM Aβ(1-42) with 3.75 µM scFv-IC16, 10 µM ThT): reduced the ThT fluorescence significantly
- fibrilization of Aβ(1-42), ThT fluorescence (Aβ(1-42); ratio 5:1: 7.5 µM Aβ(1-42) with 1.5 µM scFv-IC16, 10 µM ThT): reduced the ThT fluorescence significantly
- immunoprecipitation of monomeric Aβ ([1]; 7PA2 conditioned medium containing FCS, overnight 4°C): efficiently precipitated
- immunoprecipitation of lower oligomeric Aβ species ([1]; conditioned medium of 7PA2 cells cultured without FCS): efficiently precipitated
- plaque staining in brain cryosections [2]: detect plaques specifically
